Laboratory results reported in patent US12692238B2, “Substituted pyridazinone herbicides” (FMC CORPORATION, priority 2020, dated 2026).

Experiments:
Type in all cases: in vivo
kochia (Bassia scoparia) [1] = experiment: Test A postemergence, kochia; conditions: 10 days
Description: (§1) Seeds of plant species selected from barnyardgrass (Echinochloa crus-galli), blackgrass (Alopecurus myosuroides), corn (Zea mays), foxtail, giant (giant foxtail, Setaria faberi), foxtail, green (green foxtail, Setaria viridis), goosegrass (Eleusine indica), kochia (Bassia scoparia), oat, wild (wild oat, Avena fatua), palmer amaranth (pigweed, palmer, Amaranthus palmeri), redroot pigweed (Amaranthus retroflexus), ragweed (common ragweed, Ambrosia artemisiifolia), ryegrass, Italian (Italian ryegrass, Lolium multiflorum), and soybean (Glycine max) were planted into a blend of loam soil and sand and treated preemergence with a directed soil spray using test chemicals formulated in a non-phytotoxic solvent mixture which included a surfactant.
(§2) At the same time, plants selected from these crop and weed species and also wheat (Triticum aestivum), galium (catchweed bedstraw, Galium aparine) and horseweed (Erigeron canadensis) were planted in pots containing the same blend of loam soil and sand and treated with postemergence applications of test chemicals formulated in the same manner. Plants ranged in height from 2 to 10 cm and were in the one- to two-leaf stage for the postemergence treatment. Treated plants and untreated controls were maintained in a greenhouse for 10 days, after which time all treated plants were compared to untreated controls and visually evaluated for injury. Plant response ratings, summarized in Table A, are based on a 0 to 100 scale where 0 is no effect and 100 is complete control. A dash (-) response means no test result.

[2] = system: wheat (Triticum aestivum); experiment: Test A postemergence, wheat; conditions: 10 days
Description: as §1, §2

[3] = system: barnyardgrass (Echinochloa crus-galli); experiment: Test B flooded paddy test, barnyardgrass; conditions: 250 g ai/ha, Flood; visually evaluated after 10 to 14 days
Description: (§3) Plant species in the flooded paddy test selected from barnyardgrass (Echinochloa crus-galli), ducksalad (Heteranthera limosa), rice (Oryza sativa), and sedge, umbrella (small-flower umbrella sedge, Cyperus difformis) were grown to the 2-leaf stage for testing. At time of treatment, test pots were flooded to 3 cm above the soil surface, treated by application of test compounds directly to the paddy water, and then maintained at that water depth for the duration of the test. Treated plants and controls were maintained in a greenhouse for 10 to 14 days, after which time all species were compared to controls and visually evaluated. Plant response ratings, summarized in Table B, are based on a scale of 0 to 100 where 0 is no effect and 100 is complete control. A dash (-) response means no test result.

[4] = system: barnyardgrass (Echinochloa crus-galli); experiment: Test A preemergence, barnyardgrass; conditions: 10 days
Description: as §1, §2

[5] = system: ryegrass, Italian (Italian ryegrass, Lolium multiflorum); experiment: Test A postemergence, ryegrass, Italian; conditions: 10 days
Description: as §1, §2

rice (Oryza sativa) = experiment: Test B flooded paddy test, rice; conditions: 250 g ai/ha, Flood; visually evaluated after 10 to 14 days
Description: as §3

[6] = system: sedge, umbrella (small-flower umbrella sedge, Cyperus difformis); experiment: Test B flooded paddy test, sedge, umbrella; conditions: 250 g ai/ha, Flood; visually evaluated after 10 to 14 days
Description: as §3

[7] = system: redroot pigweed (Amaranthus retroflexus); experiment: Test A preemergence, redroot pigweed; conditions: 0 to 100 scale, 10 days
Description: as §1, §2

[8] = system: ducksalad (Heteranthera limosa); experiment: Test B flooded paddy test, ducksalad; conditions: 250 g ai/ha, Flood; visually evaluated after 10 to 14 days
Description: as §3

[9] = system: foxtail, giant (giant foxtail, Setaria faberi); experiment: Test A preemergence, foxtail, giant; conditions: 0 to 100 scale, 10 days
Description: as §1, §2

[10] = system: barnyardgrass (Echinochloa crus-galli); experiment: Test A postemergence, barnyardgrass; conditions: 10 days
Description: as §1, §2

[11] = system: ragweed (common ragweed, Ambrosia artemisiifolia); experiment: Test A postemergence, ragweed; conditions: 10 days
Description: as §1, §2

[12] = system: ragweed (common ragweed, Ambrosia artemisiifolia); experiment: Test A preemergence, ragweed; conditions: 0 to 100 scale, 10 days
Description: as §1, §2

[13] = system: ryegrass, Italian (Italian ryegrass, Lolium multiflorum); experiment: Test A preemergence, ryegrass, Italian; conditions: 0 to 100 scale, 10 days
Description: as §1, §2

corn (Zea mays) = experiment: Test A postemergence, corn; conditions: 10 days
Description: as §1, §2

[14] = system: blackgrass (Alopecurus myosuroides); experiment: Test A postemergence, blackgrass; conditions: 10 days
Description: as §1, §2

[15] = system: galium (catchweed bedstraw, Galium aparine); experiment: Test A postemergence, galium; conditions: 10 days
Description: as §1, §2

[16] = system: redroot pigweed (Amaranthus retroflexus); experiment: Test A postemergence, redroot pigweed; conditions: 10 days
Description: as §1, §2

[17] = system: foxtail, giant (giant foxtail, Setaria faberi); experiment: Test A postemergence, foxtail, giant; conditions: 10 days
Description: as §1, §2

kochia (Bassia scoparia) [18] = experiment: Test A preemergence, kochia; conditions: 0 to 100 scale, 10 days
Description: as §1, §2

[19] = 31 g ai/ha, postemergence, 0 to 100 scale (0 no effect, 100 complete control)
[20] = Postemergence, 125 g ai/ha, 0 to 100 scale
[21] = 125 g ai/ha, 0 to 100 scale (0 no effect, 100 complete control)
[22] = Postemergence, 31 g ai/ha, 0 to 100 scale

Compound | Plant response rating, Kochia (kochia (Bassia scoparia) [1]; [19]) | Plant response rating, Kochia (kochia (Bassia scoparia) [1]; [20]) | Plant response rating, Wheat [2, 19] | Plant response rating, Wheat [2, 20] | Plant response rating, Barnyardgrass (0 to 100 scale where 0 is no effect and 100 is complete control) [3] | Plant response rating, Barnyardgrass ([4]; 31 g ai/ha, 0 to 100 scale) | Plant response rating, Barnyardgrass [4, 21] | Plant response rating, Ryegrass, Italian [5, 19] | Plant response rating, Ryegrass, Italian [5, 20] | Plant response rating, Rice (0 to 100 scale where 0 is no effect and 100 is complete control) (rice (Oryza sativa)) | Plant response rating, Sedge, Umbrella (0 to 100 scale where 0 is no effect and 100 is complete control) [6] | Plant response rating, Pigweed, Redroot ([7]; 31 g ai/ha) | Plant response rating, Pigweed, Redroot ([7]; 125 g ai/ha) | Plant response rating, Ducksalad (0 to 100 scale where 0 is no effect and 100 is complete control) [8] | Plant response rating, Foxtail, Giant ([9]; 31 g ai/ha) | Plant response rating, Foxtail, Giant ([9]; 125 g ai/ha) | Plant response rating, Barnyardgrass [10, 20] | Plant response rating, Ragweed [11, 19] | Plant response rating, Ragweed [11, 20] | Plant response rating, Ryegrass, Italian ([13]; 31 g ai/ha) | further results
CC(=O)OCOc1c(C)nn(C)c(=O)c1-c1c2cc(C)ccc2cc2c(F)cc(C)cc12 [Compound 29] | 60 | 100 | 0 | 0 | 55 | 0 | 70 | 40 | 60 | 0 | 98 | 100 | 100 | 95 | 0 | 20 | 90 | 100 | 100 | 0 | Plant response rating, Barnyardgrass [10, 19]: 20; Plant response rating, Ragweed ([12]; 31 g ai/ha): 90; Plant response rating, Ragweed ([12]; 125 g ai/ha): 90; Plant response rating, Ryegrass, Italian ([13]; 125 g ai/ha): 60; Plant response rating, Corn (corn (Zea mays); [19]): 0; Plant response rating, Corn (corn (Zea mays); [20]): 0; Plant response rating, Blackgrass [14, 19]: 0; Plant response rating, Blackgrass [14, 20]: 20; Plant response rating, Galium [15, 19]: 90; Plant response rating, Galium [15, 20]: 100; Plant response rating, Pigweed, Redroot [16, 19]: 100; Plant response rating, Pigweed, Redroot [16, 20]: 100; Plant response rating, Foxtail, Giant [17, 19]: 20; Plant response rating, Foxtail, Giant [17, 20]: 20; Plant response rating, Kochia (kochia (Bassia scoparia) [18]; 31 g ai/ha): 20; Plant response rating, Kochia (kochia (Bassia scoparia) [18]; 125 g ai/ha): 100
CC(=O)OCOc1c(C)nn(C)c(=O)c1-c1c2ccccc2cc2ccccc12 [Compound 13] | 10 | 50 | 0 | 0 | 0 | 0 | 30 | 70 | 100 | 0 | 0 | 100 | 100 | 0 | 0 | 20 | 40 | 90 | 100 | 30 | Plant response rating, Barnyardgrass [10, 22]: 10; Plant response rating, Ryegrass, Italian ([13]; 125 g ai/ha): 70; Plant response rating, Corn (corn (Zea mays); [22]): 0; Plant response rating, Corn (corn (Zea mays); [20]): 0; Plant response rating, Blackgrass [14, 22]: 0; Plant response rating, Blackgrass [14, 20]: 40; Plant response rating, Galium [15, 19]: 100; Plant response rating, Galium [15, 20]: 100; Plant response rating, Pigweed, Redroot [16, 19]: 100; Plant response rating, Pigweed, Redroot [16, 20]: 100; Plant response rating, Foxtail, Giant [17, 22]: 10; Plant response rating, Foxtail, Giant [17, 20]: 60; Plant response rating, Kochia (kochia (Bassia scoparia) [18]; 31 g ai/ha): 0; Plant response rating, Kochia (kochia (Bassia scoparia) [18]; 125 g ai/ha): 0
COc1ccc2cc3ccc(F)cc3c(-c3c(OCOC(C)=O)c(C)nn(C)c3=O)c2c1 [Compound 26] | 40 | 80 | 20 | 60 | 60 | 10 | 70 | 20 | 90 | 10 | 85 | 100 | 100 | 80 | 20 | 90 | 40 | 90 | 100 | 10 | Plant response rating, Barnyardgrass [10, 19]: 20; Plant response rating, Ragweed ([12]; 31 g ai/ha): 30; Plant response rating, Ragweed ([12]; 125 g ai/ha): 30; Plant response rating, Ryegrass, Italian ([13]; 125 g ai/ha): 90; Plant response rating, Corn (corn (Zea mays); [19]): 0; Plant response rating, Corn (corn (Zea mays); [20]): 10; Plant response rating, Blackgrass [14, 19]: 0; Plant response rating, Blackgrass [14, 20]: 10; Plant response rating, Galium [15, 19]: 80; Plant response rating, Galium [15, 20]: 100; Plant response rating, Pigweed, Redroot [16, 19]: 100; Plant response rating, Pigweed, Redroot [16, 20]: 100; Plant response rating, Foxtail, Giant [17, 19]: 20; Plant response rating, Foxtail, Giant [17, 20]: 70; Plant response rating, Kochia (kochia (Bassia scoparia) [18]; 31 g ai/ha): 20; Plant response rating, Kochia (kochia (Bassia scoparia) [18]; 125 g ai/ha): 90
CC(=O)OCOc1c(C)nn(C)c(=O)c1-c1c2ccccc2c(Br)c2ccccc12 [Compound 14] | 30 | 60 | 0 | 40 | 20 | 10 | 80 | 80 | 100 | 0 | 90 | 100 | 100 | 80 | 60 | 100 | 80 | 90 | 100 | 80 | Plant response rating, Barnyardgrass [10, 22]: 30; Plant response rating, Ragweed ([12]; 31 g ai/ha): 90; Plant response rating, Ragweed ([12]; 125 g ai/ha): 100; Plant response rating, Ryegrass, Italian ([13]; 125 g ai/ha): 100; Plant response rating, Corn (corn (Zea mays); [22]): 0; Plant response rating, Corn (corn (Zea mays); [20]): 0; Plant response rating, Blackgrass [14, 22]: 20; Plant response rating, Blackgrass [14, 20]: 30; Plant response rating, Galium [15, 19]: 100; Plant response rating, Galium [15, 20]: 100; Plant response rating, Pigweed, Redroot [16, 19]: 100; Plant response rating, Pigweed, Redroot [16, 20]: 100; Plant response rating, Foxtail, Giant [17, 22]: 30; Plant response rating, Foxtail, Giant [17, 20]: 90; Plant response rating, Kochia (kochia (Bassia scoparia) [18]; 31 g ai/ha): 20; Plant response rating, Kochia (kochia (Bassia scoparia) [18]; 125 g ai/ha): 30
